From patent US20140235601A1, “Use of Aromatase Inhibitor Or Estrogen Blocker For Increasing Spermatogenesis Or Testosterone Levels In Males” (priority 2011, published 2014)

Experiments:
Type in all cases: in vivo, human
[1] = system: person with testicular atrophy following pelvic radiation; test: Clinical Example C: person with testicular decline after pelvic radiation for prostate cancer treated with Letrazole; settings: 1/40th of a 2.5 mg tablet daily
Description: A sexually active person with biopsy confirmed prostate cancer elects to treat their cancer with pelvic radiation. Following radiation there is a progressive decline in testosterone levels, combined with testicular atrophy and increasing erectile dysfunction.

[2] = system: person with extremely small and atrophic testicles; test: Clinical Example B: person with low libido, erectile dysfunction and ejaculatory failure treated with Femara; settings: ⅛ to ½ of a 2.5 mg tablet
Experimental: A […] athletic and muscular […] complaining of low libido, erectile dysfunction and ejaculatory failure. Patient was needing to use Viagra in order to function sexually, and had no desire for sex. Sex hormones testosterone and estrogen were measured at prepubertal levels.

[3] = system: married person with small very atrophic testicles; test: Clinical Example A: person with history of undescended testicles, impotence and infertility treated with Arimidex; settings: ⅛ mg (0.125 mg) daily
Description: A married person with a history of undescended testicles that were surgically corrected […]. This person presented to the inventor with small very atrophic testicles, impotence (difficulty in erecting, only occasionally able to have successful intercourse only with PDE5 inhibitors) and an inability to conceive despite two years of unprotected sexual intercourse with their spouse.
All of this is a result of the improved testicular function that this relatively low dose of Arimidex provided for this patient.

| SMILES | testicular function [1] | testosterone levels [1] | ejaculations during intercourse [2] | erections [2] | sex drive [2] | testicular function [2] | testosterone levels [2] | erectile function [3] | fertility (ability to conceive) [3] | sperm counts [3] | testicular function [3] | testosterone levels [3] |
| --- | --- | --- | --- | --- | --- | --- | --- | --- | --- | --- | --- | --- |
| N#Cc1ccc(C(c2ccc(C#N)cc2)n2cncn2)cc1 [Femara, Letrozole] | significant improvement | dramatic rise | restoration | improved | restoration | dramatic increase | restored to the high supraphysiologic levels |  |  |  |  |  |
| CC(C)(C#N)c1cc(Cn2cncn2)cc(C(C)(C)C#N)c1 [Arimidex, Anastrozole] |  |  |  |  |  |  |  | dramatic improvement | able to conceive and have a child | dramatic increase | improved | significant increase |
